Values after ≈ are worked out from the molar mass of the structure shown.
Tests used:
S. AUREUS = experiment: Minimum Inhibitory Concentration (MIC), broth dilution in Brain Heart Infusion broth; format: cell-based, Staphylococcus aureus; settings: 37° C., 48 hours, Brain Heart Infusion broth; for MIC: Staphylococcus aureus, read-out: MIC S. AUREUS
Experimental: (§1) For testing against the bacteria, concentrations of each of the compounds were prepared in Brain Heart Infusion broth (Oxoid CM225) in two-fold steps from 1000 μg/ml to 1 μg/ml. Solutions containing 1000 μg/ml were prepared by dissolving 20 mg of each compound in 5 ml of acetone and this was then made up to 20 ml with Brain Heart Infusion Broth. Serial two-fold dilutions were then prepared in the broth down to 1 μg/ml.
(§2) For testing against the bacteria each of the prepared test concentrations and acetone controls prepared in Brain Heart Infusion were dispensed in 2 ml amounts for each organism. A growth control of 2 ml of Brain Heart Infusion was included in each series.
(§3) To each of the prepared sets of concentrations of each compound were added 0.1 ml aliquots of the organism suspensions prepared as described previously. All the bottles were incubated at 37° C. for 48 hours in the case of the bacteria and from 5 to 15 days for the fungi (until growth controls had grown in each case).
(§4) After incubation the broths were examined for evidence of growth. The lowest concentration of the test compound which prevented growth was recorded as the Minimum Inhibitory Concentration (MIC).

St. PYOGENES = experiment: as above; format: cell-based; settings: 37° C., 48 hours; for MIC: Streptococcus pyogenes
Experimental: as §1, §2, §3, §4

C. ALBICANS = experiment: Minimum Inhibitory Concentration (MIC), dilution in Sabouraud liquid medium; format: cell-based; settings: 37° C., 5 to 15 days; for MIC: Candida albicans
Experimental: (§5) For testing against the fungi, concentrations of each of the compounds were prepared in Sabouraud liquid medium in two-fold steps from 100 μg/ml to 0.1 μg/ml. 500 μg/ml solutions were prepared by dissolving 10 mg in 5 ml of acetone, made up to 20 ml with Sabouraud liquid medium. 4 ml of the 500 μg/ml concentration was then made up to 20 ml with Sabouraud liquid medium to give a concentration of 100 μg/ml. Serial two-fold dilutions were prepared from this in the same medium down to 0.1 μg/ml.
(§6) For the fungi the same procedure was followed using the concentrations made up in Sabouraud liquid medium. The Nystatin concentrations were also dispensed in 2 ml amounts for each organism. Growth controls of Sabouraud liquid medium were included in each series.
as §3, §4

Mic. CANIS = experiment: as above; format: cell-based; settings: 37° C., 5 to 15 days; for MIC: Microsporum canis
Experimental: as §5, §6, §3, §4

Sp. SCHENKII = experiment: as above; format: cell-based; settings: 37° C., 5 to 15 days
Experimental: as §5, §6, §3, §4

Tr. MENTAGROPHYTES = experiment: as above; format: cell-based; settings: 37° C., 5 to 15 days; for MIC: Trichophyton mentagrophytes
Experimental: as §5, §6, §3, §4

Tr. RUBRUM = experiment: as above; format: cell-based; settings: 37° C., 5 to 15 days; for MIC: Trichophyton rubrum
Experimental: as §5, §6, §3, §4

CD-1 mice = experiment: Acute oral toxicity in CD-1 mice; format: in vivo; settings: male and female CD-1 mice, dose levels 1000, 464, 215 and 100 mg/kg, 7 days observation
Experimental: (§7) Male and female CD-1 mice were fasted for 18 hours prior to the experiment, but water was available ad libitum except during the observation period. The test compounds were prepared in 1% tragacanth and were administered orally to groups of two male and two female mice.
(§8) All compounds were tested at dose levels of 1000, 464, 215 and 100 mg/kg. Immediately after dosing, the mice were replaced in their "home" cage and were observed daily for 7 days post dose and any mortalities recorded.
(§9) The acute toxicities, as determined by the above procedure, of a number of representative compounds are given in the accompanying table.

bacteria = settings: literature (W. Riedl); cited from earlier work
[1] = Acute oral toxicity in CD-1 mice; format: in vivo; settings: mouse, in vivo, male and female CD-1 mice, dose levels 1000, 464, 215 and 100 mg/kg, 7 days observation
Experimental: as §7, §8, §9

either 7-butyryl-4,6-dihydroxy-2-methyl-2,3-dihydrobenzofuran or 5-butyryl-4,6-dihydroxy-2-methyl-2,3-dihydrobenzofuran [Compound 35]
MIC S. AUREUS (S. AUREUS): 125 µg/mL
MIC St. PYOGENES (St. PYOGENES): 32 µg/mL
MIC C. ALBICANS (C. ALBICANS): 25 µg/mL
MIC Mic. CANIS (Mic. CANIS): 12,5 μg/ml
MIC Sp. SCHENKII (Sp. SCHENKII): 50 µg/mL
MIC Tr. MENTAGROPHYTES (Tr. MENTAGROPHYTES): 25 µg/mL
MIC Tr. RUBRUM (Tr. RUBRUM): 25 µg/mL
LD50 (CD-1 mice): > 1000

CC(C)=CCC1=C(O)C(O)(CC=C(C)C)C(=O)C(C(=O)CC(C)C)=C1O (stereo not shown) [humulon]
antibiotic / antibacterial activity (in words) (bacteria): certain antibiotic properties

CC(C)=CCC1=C(O)C(C(=O)CC(C)C)=C(O)C(CC=C(C)C)(CC=C(C)C)C1=O [lupulone]
antibiotic / antibacterial activity (in words) (bacteria): certain antibiotic properties

CC(C)CCC(=O)c1c(O)cc2c(c1O)CCC(C)(C)O2 [Compound 33, 5,7-dihydroxy-2,2-dimethyl-6-isocaproyl chroman]
MIC (S. AUREUS): 125 µg/mL (≈ 428 µM)
MIC (St. PYOGENES): 64 µg/mL (≈ 219 µM)
MIC (C. ALBICANS): 100 µg/mL (≈ 342 µM)
MIC (Mic. CANIS): 100 µg/mL (≈ 342 µM)
MIC (Sp. SCHENKII): > 100 µg/mL
MIC (Tr. MENTAGROPHYTES): > 100 µg/mL
MIC (Tr. RUBRUM): 25 µg/mL (≈ 85.5 µM)
LD50 at 168 h [1]: > 1000 mg/kg

CC(C)=CCc1c(O)cc(O)c(C(=O)CCC(C)C)c1O [Compound 7, 2-Isocaproyl-4-(3-methylbuten-2-yl)phloroglucinol]
MIC (S. AUREUS): 16 µg/mL (≈ 54.7 µM)
MIC (St. PYOGENES): 8 µg/mL (≈ 27.4 µM)
MIC (C. ALBICANS): 25 µg/mL (≈ 85.5 µM)
MIC (Mic. CANIS): 6 µg/mL (≈ 20.5 µM)
MIC (Sp. SCHENKII): 25 µg/mL (≈ 85.5 µM)
MIC (Tr. MENTAGROPHYTES): 6 µg/mL (≈ 20.5 µM)
MIC (Tr. RUBRUM): 6 µg/mL (≈ 20.5 µM)
LD50 at 168 h [1]: 1000 mg/kg

C=CCc1c(O)cc(O)c(C(=O)C2CCCCC2)c1O [Compound 20]
MIC (S. AUREUS): 32 µg/mL (≈ 116 µM)
MIC (St. PYOGENES): 8 µg/mL (≈ 29 µM)
MIC (C. ALBICANS): 25 µg/mL (≈ 90.5 µM)
MIC (Mic. CANIS): 13 µg/mL (≈ 47 µM)
MIC (Sp. SCHENKII): 25 µg/mL (≈ 90.5 µM)
MIC (Tr. MENTAGROPHYTES): 13 µg/mL (≈ 47 µM)
MIC (Tr. RUBRUM): 25 µg/mL (≈ 90.5 µM)
LD50 at 168 h [1]: > 1000 mg/kg

Reference: patent US4503256A, “Phlorophenone derivatives, processes for preparing such compounds, uses and pharmaceutical compositions of phlorophenone compounds” (Noristan Limited, priority 1981, dated 1985)
